Here are results for one compound from US9017719B2, “Injectable drug carrier comprising layered double hydroxide” (Nanohybrid Co., Ltd., priority 2005, dated 2015).

The data set in a line: In vivo toxicity test of LDH-MTX hybrid and MTX, intraperitoneal, death rate. The conditions noted are these: mouse, ip, Balb/c mice, dosed weekly for three weeks. The procedure:
Like in the in vivo toxicity test of LDH of Example 2, small animal models, Balb/c mice (6-7 weeks old) were purchased and managed in cages (5 mice/cage). MTX was administered intraperitoneally to 10 mice at each concentration of 50, 75, and 100 mg/kg and the LDH-MTX hybrid synthesized in Example 3 was administered intraperitoneally to 10 mice at each concentration of 3, 6, 12.5, 25, 50, 75, and 100 mg/kg. The body weight of each mouse was measured every week for three weeks and a dosage of drug adjusted to the newly measured weight was administered. The body weights of the mice died during the test were excluded from statistical analysis. A death rate with respect to the concentration of MTX is represented by total number of mice survived in FIG. 7a and a death rate with respect to the concentration of the LDH-MTX hybrid is represented by the total number of mice survived in FIG. 7b. […] That is, the lethal dose of the LDH-MTX hybrid was equal to ⅓ of that of MTX.

The structures appear in SMILES notation.

Turning to `CN(Cc1cnc2nc(N)nc(N)c2n1)c1ccc(C(=O)N[C@@H](CCC(=O)O)C(=O)O)cc1` [MTX, methotrexate], the LD50 (usually the dose at which mortality reaches 50%) at 3 weeks came to 75 mg/kg.
